Counter-ions that a name gives are not always drawn. Like-named read-outs stand apart in the source and are kept apart here. Each block holds one compound with its values, some of them ahead of it.
What was measured:
[1] = Stability at 40° C. and 75% RH; type: physicochemical; conditions: 30 days at 40° C. and 75% RH
[2] = Vapor sorption analysis (DVS), hygroscopicity; type: physicochemical
Solubility in water = type: physicochemical
mTOR = biological target: T1, mTOR (Homo sapiens, UniProt P42345); assay: mTOR cell-based mechanistic assay: inhibition of phosphorylation of 4E-BP1 (T37/46) in MDA-MB-231 cells; conditions: 3 h treatment
T1 construct: endogenous in cells; host or cells: MDA-MB-231 cells
Procedure: MDA-MB-231 cells were plated in 96 well plates at 2×10^4 cells/well in 90 uL of Complete growth medium and incubated at 37° C. overnight in a CO2 incubator. […] Cell lysates' were transferred to a 96-well plate coated with 4E-BP1 antibodies to capture phospho-4E-BP1 (T37/46) and incubated overnight at 4° C. The amount of phospho-4E-BP1 in each well is further measured by incubating the wells with anti-rabbit phospho-4E-BP1 (T37/46) antibodies and a corresponding goat anti-rabbit IgG conjugated to HRP. The amount of HRP present in each well is measured by a chemiluminescence method, which corresponds to amount of phospho-4E-BP1 in each well. IC50 values were determined using a 6-point dose response curve.

stability (degradation) [1]: no significant degradation | hygroscopicity (DVS) ([2]; at 90-95% RH): 2-4% | solubility in water (Solubility in water): approximately 6 mg/mL
Compound: COc1cccc2cc(-c3nc([C@H]4CC[C@H](C(=O)O)CC4)n4ncnc(N)c34)[nH]c12 [Example 1, trans-4-[4-amino-5-(7-methoxy-1H-indol-2-yl)imidazo[5,1-f][1,2,4]triazin-7-yl]cyclohexane carboxylic acid tromethamine salt]

solubility in water (Solubility in water; sodium salt): > 30 mg/mL
Compound: COc1cccc2cc(-c3nc([C@H]4CC[C@H](C(=O)O)CC4)n4ncnc(N)c34)[nH]c12 [Example 3, trans-4-[4-amino-5-(7-methoxy-1H-indol-2-yl)imidazo[5,1-f][1,2,4]triazin-7-yl]cyclohexanecarboxylic acid sodium salt]

IC50 (mTOR): ~1000 nM
Compound: COc1cccc2cc(-c3nc([C@H]4CC[C@H](C(=O)O)CC4)n4ncnc(N)c34)[nH]c12 [trans-4-[4-amino-5-(7-methoxy-1H-indol-2-yl)-imidazo[5,1-f][1,2,4]triazin-7-yl]cyclohexanecarboxylic acid]

Compound: trans-4-[4-amino-5-(7-methoxy-1H-indol-2-yl)imidazo[5,1-f][1,2,4]triazin-7-yl]cyclohexane carboxylic acid calcium salt [Example 2]
hygroscopicity, weight gain (DVS) ([2]; from 0 to 95% RH): 35%

From patent US8557814B2, “mTOR inhibitor salt forms” (OSI Pharmaceuticals, LLC, priority 2008, dated 2013)
